Measured values taken from PubChem BioAssay AID1963961 (Molecular Pharmacology Branch, DTP, NCI, 2024).

System: K98450-129-R-PDC multicell spheroids, viability
Test: Anticancer human tumor K98450-129-R-PDC patient-derived colon adenocarcinoma cell line growth inhibition [PI3K]
Settings: for IC50: curve of first compound; for viability, T/C: stronger effect = lower value
Text: Combinatorial screen of targeted agents with the PI3K inhibitors inavolisib, alpelisib, duvelisib, and copanlisib in multi-cell type tumor spheroids
A high-throughput screen of multi-cell type tumor spheroids was designed to identify active combinations of targeted small molecules and PI3K pathway inhibitors. Complex spheroids include a stromal component modeled by human endothelial cells (HUVEC) and fibroblasts modeled by human mesenchymal stem cells (MSCs). The concentration ranges selected for each drug and investigational agent were based upon clinically achievable concentrations if the clinical Cmax of the agent was known.
Compounds. The drugs and investigational agents: inavolisib (NSC800729), alpelisib (NSC765974), duvelisib (NSC772469), copanlisib (NSC816437), ipatasertib (NSC767898), afuresertib (NSC778305), talazoparib (NSC767125), sapanisertib (NSC764658), selumetinib (NSC741078), tovorafenib (DAY101, NSC766906), vemurafenib (NSC761431), ravoxertinib (NSC781343), sotorasib (NSC818433), MRTX1133 (NSC 836407), abemaciclib (NSC 768073), palbociclib (NSC758247), venetoclax (NSC 766270), SY5609 (NSC837396), enzalutamide (NSC755605), and darolutamide (NSC825331), were obtained from the National Cancer Institute (NCI) Developmental Therapeutics Program Chemical Repository. The FDA-approved anticancer drug set is available from the NCI Developmental Therapeutics Program. […] The stock solutions were prepared in dimethyl sulfoxide (DMSO, Sigma-Aldrich, St. Louis, MO, cat. D2650) at 800-fold the tested concentration and stored at -70 degrees C prior to their use. All drugs and investigational agents were tested over a range starting from a high concentration at or near the clinical Cmax and decreasing in half-log increments. If the clinical Cmax for an agent had not been determined, the highest concentration tested was 10 microM.
Cell Culture. All cells were maintained in an incubator at 37 degrees C and 5% CO2 with 95% humidity. The PDC lines were cultured according to standard operating procedures established by the NCI PDMR (https://pdmr.cancer.gov/sops/default.htm). All PDCs were thawed and cultured in Matrigel-coated flasks prepared with a working solution of 1X Ham's F-12 nutrient mix, without supplementation (Invitrogen, Waltham, MA, cat. 11765054), 100 U/mL penicillin-streptomycin (Invitrogen, cat. 15140122), and 2.5% Matrigel (Corning Inc., Corning, NY, cat. 354248) for the first three passages. The 354836-022-R-J1-PDC, 475296-252-R-J1-PDC, and 997726-040-R-J2-PDC lines were cultured in 6A media, which includes advanced DMEM/F-12 (Thermo Fisher Scientific, cat. 12634028), 10 mM HEPES (Thermo Fisher Scientific, cat. 15630080), 1X GlutaMAX supplement (Thermo Fisher Scientific, cat. 35050061), 0.1 mg/mL primocin (InvivoGen, San Diego, CA, cat. ant-pm-2), 10% defined fetal bovine serum, heat inactivated (HyClone Laboratories Inc., Logan, UT, cat. SH30070.03HI), 50% L-WRN conditioned media (ATCC, cat. CRL-3276), 1.25 mM N-Acetyl-L-cysteine (Sigma-Aldrich, cat. A9165), 10 mM nicotinamide (Sigma-Aldrich, cat. N0636), 1X B-27 supplement (Thermo Fisher Scientific, cat. 17504044), 1X N-2 supplement (Thermo Fisher Scientific, cat. 17502048), and 10 microM Y-27632 dihydrochloride (Tocris Bioscience, Bristol, United Kingdom, cat. 1254). The 624824-186-R-J2-PDC line was cultured in 6C/Colon 1B media, which includes all 6A media components plus 50 ng/mL human EGF recombinant protein (Thermo Fisher Scientific, cat. PHG0311). […]
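Note: spheroids exposed to agents for seven days before read-out.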

Compound: CC(Cn1ccc(-c2ccc(C#N)c(Cl)c2)n1)NC(=O)c1cc(C(C)O)[nH]n1 (configuration not stated) + COc1c(OCCCN2CCOCC2)ccc2c3n(c(=NC(=O)c4cnc(N)nc4)nc12)CCN3
- IC50 (second compound 0.00316 µM): > 10 µM
- IC50 (second compound 0.01 µM): > 10 µM
- IC50 (second compound 0.0316 µM): > 10 µM
- IC50 (second compound 0.1 µM): > 10 µM
- IC50 (second compound 0.316 µM): > 10 µM
- IC50 (second compound 1 µM): 4.9 µM
- viability, T/C (second compound 0.00316 µM, first compound 0.0316 µM): 102%
- viability, T/C (second compound 0.00316 µM, first compound 0.1 µM): 97.7%
- viability, T/C (second compound 0.00316 µM, first compound 0.316 µM): 117%
- viability, T/C (second compound 0.00316 µM, first compound 1 µM): 104%
- viability, T/C (second compound 0.00316 µM, first compound 3.16 µM): 107%
- viability, T/C (second compound 0.00316 µM, first compound 10 µM): 111%
- viability, T/C (second compound 0.01 µM, first compound 0.0316 µM): 116%
- viability, T/C (second compound 0.01 µM, first compound 0.1 µM): 95%
- viability, T/C (second compound 0.01 µM, first compound 0.316 µM): 105%
- viability, T/C (second compound 0.01 µM, first compound 1 µM): 102%
- viability, T/C (second compound 0.01 µM, first compound 3.16 µM): 90.7%
- viability, T/C (second compound 0.01 µM, first compound 10 µM): 89.5%
- viability, T/C (second compound 0.0316 µM, first compound 0.0316 µM): 88.9%
- viability, T/C (second compound 0.0316 µM, first compound 0.1 µM): 92.9%
- viability, T/C (second compound 0.0316 µM, first compound 0.316 µM): 80.5%
- viability, T/C (second compound 0.0316 µM, first compound 1 µM): 89.6%
- viability, T/C (second compound 0.0316 µM, first compound 3.16 µM): 93.1%
- viability, T/C (second compound 0.0316 µM, first compound 10 µM): 75.8%
- viability, T/C (second compound 0.1 µM, first compound 0.0316 µM): 74.9%
- viability, T/C (second compound 0.1 µM, first compound 0.1 µM): 79%
- viability, T/C (second compound 0.1 µM, first compound 0.316 µM): 82.1%
- viability, T/C (second compound 0.1 µM, first compound 1 µM): 95.2%
- viability, T/C (second compound 0.1 µM, first compound 3.16 µM): 90%
- viability, T/C (second compound 0.1 µM, first compound 10 µM): 71.1%
- viability, T/C (second compound 0.316 µM, first compound 0.0316 µM): 47.2%
- viability, T/C (second compound 0.316 µM, first compound 0.1 µM): 59.4%
- viability, T/C (second compound 0.316 µM, first compound 0.316 µM): 64.2%
- viability, T/C (second compound 0.316 µM, first compound 1 µM): 62.1%
- viability, T/C (second compound 0.316 µM, first compound 3.16 µM): 72.1%
- viability, T/C (second compound 0.316 µM, first compound 10 µM): 43.6%
- viability, T/C (second compound 1 µM, first compound 0.0316 µM): 48.5%
- viability, T/C (second compound 1 µM, first compound 0.1 µM): 59.8%
- viability, T/C (second compound 1 µM, first compound 0.316 µM): 63.2%
- viability, T/C (second compound 1 µM, first compound 1 µM): 52.1%
- viability, T/C (second compound 1 µM, first compound 3.16 µM): 54.2%
- viability, T/C (second compound 1 µM, first compound 10 µM): 44%
